# Laboratory results as given in patent EP1750770B1, “USE OF ORGANO-SILICON COMPOUNDS FOR CO[…] TISSUES” (Exsymol, priority 2004, dated 2005).
# Where two headings read alike, the source gives them in different places.
# Experiments:
# [1] = system: matrice extra-cellulaire (MEC) cutanée; assay: Qualitative evaluation: implant appearance and histological analysis of collagen organisation of the ECM (Test 1); assay type: in vivo, rats Hairless; conditions: once daily
# Text: (§1) L'action quantitative et qualitative des deux composés organo-siliciés sur des rats Hairless et les altérations d'organisation de leur matrice extra-cellulaire (MEC) cutanée a été évaluée, et de manière régiosélective. En effet, un volume dermique de 0,5 cm^3 environ a été prélevé puis remplacé chirurgicalement par un dispositif médical implantable, que sont les microéponges en polyvinylalcool. Ces dernières sont usuellement utilisées pour la transplantation de cellules (Mooney D.J., J. Biomed. Mat Res(1995), vol.29, pp.959) car biocompatibles, de haute porosité et capables d'absorber 98% de leur volume.
# (§2) La re-colonisation de l'implant (ou dispositif médical implantable) par le tissu dermique est alors observée sous l'effet des composés organo-siliciés. […] Les composés organo-siliciés sont administrés à raison d'une fois par jour pendant 2 mois.
# (§3) L'évaluation quantitative a été réalisée via une mesure des cinétiques des marqueurs d'activité tissulaire dans la zone implantée. Les marqueurs suivis ont été des marqueurs biologiques témoignant de l'état du tissu, à savoir les enzymes "collagénase" et "élastase" qui rendent compte, avec leurs activités, du turn-over des protéines de la matrice extracellulaire, et l'enzyme "G6PDH" dont l'activité est un marqueur du niveau énergétique des cellules (équilibre redox cellulaire). L'évaluation qualitative a, elle, été réalisée avec le prélèvement chirurgical d'une partie de cet implant à différent temps de l'expérimentation. Après fixation, des coupes de 5 µm et une coloration H.E ou Trichrome-Masson ont été réalisées, ainsi qu'une analyse histologique de l'organisation du collagène de la MEC.
# [2] = system: rides "patte d'oie" et/ou intersourcilières; conditions: for échelle visuelle analogique, Front / échelle visuelle analogique, Pattes-d'oie: intradermal injections at J0, S1, S2, rated by volunteers; for amélioration du relief cutané: all injected sites
# Text: Les données obtenues à partir de l'échelle visuelle analogique ont fait l'objet d'une analyse de variance en mesures répétées sur le temps, suivie d'une analyse des contrastes.
# [3] = system: glucose-6-phosphate déshydrogénase; assay: Glucose-6-phosphate dehydrogenase activity in tissue extracts of the dermal implant zone (Test 1); assay type: in vivo, rats Hairless; conditions: once daily
# Experimental: 0,8 ml d'extrait tissulaire ont été incubés avec 20 µl de solution à 2,4 mM de NADP et à 24,4 mM de glucose 6-phosphate (G6P) en tampon phosphate (0,1M pH 7,4). L'augmentation de densité optique (mD.O./min) et corrélée à la réduction du substrat a été suivie à 340 nm à 25°C.
# as §1, §2, §3
# [4] = system: collagénase; assay: Collagenase activity in tissue extracts of the dermal polyvinyl alcohol microsponge implant zone (Test 1); assay type: in vivo, rats Hairless; conditions: once daily
# Experimental: Une solution à 0,5 mg /ml de PZ-L Pro-L Leu-L Gly-L Pro-D Arg a été réalisée dans un tampon Tris-HCl (25 mM, pH 7,0; 2,5 mM de CaCl2). 0,5 ml de la solution de substrat ont été incubés à 37°C avec 200 µl d'extrait tissulaire pendant 2 h 30. A différents temps, 100 µl du milieu réactionnel ont été prélevés et ajoutés à 250 µl d'acide citrique à 0,5% (arrêt de la réaction) puis à 1,25 ml d'acétate d'éthyle. L'augmentation de densité optique (mD.O./min) et corrélée à la protéolyse du substrat a été suivie à 320 nm.
# as §1, §2, §3
# [5] = immediately after the injection
# [6] = system: élastase; assay: Elastase activity in tissue extracts of the dermal implant zone (Test 1); assay type: in vivo, rats Hairless; conditions: once daily, SalSi-3OH intradermal, HyalSi-3OH topical cream
# Experimental: Du N-succinyl-Ala-Ala-Pro-Leu p-nitroanilide en solution dans un tampon Tris-HCl (10mM pH 8) à 0,5 g/l à été incubé à 37°C avec 0,2 ml d'extrait tissulaire dans un volume final de 1,2 ml pendant 5 heures. L'augmentation de densité optique (mD.O./min) et corrélée à la protéolyse du substrat a été suivie à […].
# as §1, §2, §3
# [7] = week 1 post-implantation, SalSi-3OH 0,5% solution 0,2 ml intradermal, HyalSi-3OH 0,5% cream 100 mg topical
substance,measurement,setting,value
salicylate de monométhylsilanetriol [SalSi-3OH],Aspect implant + analyse histologique,[1]; week 1 post-implantation,début colonisation cellulaire
same,Aspect implant + analyse histologique,[1]; week 2 post-implantation,colonisation cellulaire (70à 90%) + début formation MEC
same,Aspect implant + analyse histologique,[1]; week 3 post-implantation,formation MEC avec présence collagène non organisé
same,Aspect implant + analyse histologique,[1]; week 4 post-implantation,formation MEC avec présence collagène non organisé dans 20% des espaces de l'implant + collagène organisé dans 20% du l'implant
same,Aspect implant + analyse histologique,[1]; week 5 post-implantation,formation MEC avec présence collagène non organisédans l'ensemble de l'implant + collagène organisé dans 50% de l'implant
same,Aspect implant + analyse histologique,[1]; week 8 post-implantation,formation MEC dans l'ensemble de l'implant + collagène organisé dans 70% de l'implant
same,"échelle visuelle analogique, Front",[2]; S1,"18,67 ± 20,98 µm"
same,"échelle visuelle analogique, Pattes-d'oie",[2]; S1,"19,20 ± 19,14 µm"
same,"échelle visuelle analogique, Front",[2]; S2,"32,25 ± 23,23 µm"
same,"échelle visuelle analogique, Pattes-d'oie",[2]; S2,"31,23 ± 21,66 µm"
same,"échelle visuelle analogique, Front",[2]; S6,"35,33 ± 26,99 µm"
same,"échelle visuelle analogique, Pattes-d'oie",[2]; S6,"38,92 ± 25,97 µm"
same,"échelle visuelle analogique, Front",[2]; S12,"38,65 ± 25,85 µm"
same,"échelle visuelle analogique, Pattes-d'oie",[2]; S12,"41,63 ± 26,70 µm"
same,"échelle visuelle analogique, Front",[2]; S24,"39,55 ± 25,33 µm"
same,"échelle visuelle analogique, Pattes-d'oie",[2]; S24,"39,58 ± 24,89 µm"
same,"échelle visuelle analogique, Front",[2]; S36,"36,57 ± 24,55 µm"
same,"échelle visuelle analogique, Pattes-d'oie",[2]; S36,"39,52 ± 25,22 µm"
same,"échelle visuelle analogique, Front",[2]; S52,"34,58 ± 25,54 µm"
same,"échelle visuelle analogique, Pattes-d'oie",[2]; S52,"38,61 ± 26,10 µm"
same,amélioration du relief cutané,[2]; at 6 months,se maintient
same,amélioration du relief cutané,[2]; at 12 months,régresse très légèrement
same,amélioration du relief cutané,"[2]; mean, after 3 months",40%
same,amélioration du relief cutané (significance),[2]; one year after the first injection,significative sur tous les sites
same,Activité G6DPH,[3]; week 1 post-implantation,"7,6±1,4 mD.O./min/mg de prot."
same,Activité G6DPH,[3]; week 2 post-implantation,"9,3±1,1 mD.O./min/mg de prot."
same,Activité G6DPH,[3]; week 3 post-implantation,"18,4±2,9 mD.O./min/mg de prot."
same,Activité G6DPH,[3]; week 4 post-implantation,"43,7±5,5 mD.O./min/mg de prot."
same,Activité G6DPH,[3]; week 5 post-implantation,"36,5±4,8 mD.O./min/mg de prot."
same,Activité G6DPH,[3]; week 8 post-implantation,"9,0±0,45 mD.O./min/mg de prot."
same,Activité collagénase,[4]; [7],"3,6±0,5 mD.O./min/mg de prot."
same,Activité collagénase,[4]; week 2 post-implantation,"6,1±0,8 mD.O./min/mg de prot."
same,Activité collagénase,[4]; week 3 post-implantation,"13±1,7 mD.O./min/mg de prot."
same,Activité collagénase,[4]; week 4 post-implantation,"11,2±0,8 mD.O./min/mg de prot."
same,Activité collagénase,[4]; week 5 post-implantation,"8,1±1,3 mD.O./min/mg de prot."
same,Activité collagénase,[4]; week 8 post-implantation,"3,9±0,5 mD.O./min/mg de prot."
same,effet de comblement,[5],sans effet de comblement immédiatement après l'injection
same,Activité élastase,[6]; week 1 post-implantation,"3,0±0,6 mD.O./min/mg de prot."
same,Activité élastase,[6]; week 2 post-implantation,"6,8±1,3 mD.O./min/mg de prot."
same,Activité élastase,[6]; week 3 post-implantation,"9,5±1,3 mD.O./min/mg de prot."
same,Activité élastase,[6]; week 4 post-implantation,"8,4±1,6 mD.O./min/mg de prot."
same,Activité élastase,[6]; week 5 post-implantation,"5,1±0,9 mD.O./min/mg de prot."
same,Activité élastase,[6]; week 8 post-implantation,"2,0±0,3 mD.O./min/mg de prot."
hyaluronate de monométhylsilanetriol [HyalSi-3OH],Aspect implant + analyse histologique,[1]; week 1 post-implantation,début colonisation cellulaire
same,Aspect implant + analyse histologique,[1]; week 2 post-implantation,colonisation cellulaire (70 à 90%) + début formation MEC
same,Aspect implant + analyse histologique,[1]; week 3 post-implantation,formation MEC avec accumulation collagène non organisé
same,Aspect implant + analyse histologique,[1]; week 4 post-implantation,formation MEC avec présence collagène non organisé dans 30% des espaces de l'implant + collagène organisé dans 10% de l'implant
same,Aspect implant + analyse histologique,[1]; week 5 post-implantation,formation MEC avec présence collagène non organisé dans l'ensemble de l'implant + collagéne organisé dans 30% de l'implant
same,Aspect implant + analyse histologique,[1]; week 8 post-implantation,formation MEC dans l'ensemble de l'implant + collagène organisé dans 45% de l'implant
same,Activité G6DPH,[3]; week 1 post-implantation,"8,2±1,9 mD.O./min/mg de prot."
same,Activité G6DPH,[3]; week 2 post-implantation,"13,8±1,5 mD.O./min/mg de prot."
same,Activité G6DPH,[3]; week 3 post-implantation,"25,1±4,6 mD.O./min/mg de prot."
same,Activité G6DPH,[3]; week 4 post-implantation,"46,8±7,6 mD.O./min/mg de prot."
same,Activité G6DPH,[3]; week 5 post-implantation,"37,5±6,2 mD.O./min/mg de prot."
same,Activité G6DPH,[3]; week 8 post-implantation,"7,3±2,4 mD.O./min/mg de prot."
same,Activité collagénase,[4]; [7],"3,4±0,3 mD.O./min/mg de prot."
same,Activité collagénase,[4]; week 2 post-implantation,"5,9±0,7 mD.O./min/mg de prot."
same,Activité collagénase,[4]; week 3 post-implantation,"12,0±1,3 mD.O./min/mg de prot."
same,Activité collagénase,[4]; week 4 post-implantation,"14,1±3,1 mD.O./min/mg de prot."
same,Activité collagénase,[4]; week 5 post-implantation,"7,3±1,6 mD.O./min/mg de prot."
same,Activité collagénase,[4]; week 8 post-implantation,"3,5±1,4 mD.O./min/mg de prot."
same,Activité élastase,[6]; week 1 post-implantation,"3,4±0,5 mD.O./min/mg de prot."
same,Activité élastase,[6]; week 2 post-implantation,"7,8±2,2 mD.O./min/mg de prot."
same,Activité élastase,[6]; week 3 post-implantation,"10,5±2,9 mD.O./min/mg de prot."
same,Activité élastase,[6]; week 4 post-implantation,"9,4±2,4 mD.O./min/mg de prot."
same,Activité élastase,[6]; week 5 post-implantation,"5,6±1,1 mD.O./min/mg de prot."
same,Activité élastase,[6]; week 8 post-implantation,"2,4±0,9 mD.O./min/mg de prot."
